Measurements reported in US10245275B2 (ViiV HEALTHCARE UK (NO.4) LIMITED, priority 2014, dated 2019).
Read-outs that look alike come from different tables or passages of the source.

Experiments:
[1] = Rat PO pharmacokinetic study; format: in vivo; details: male, Sprague-Dawley, plasma, oral dose of 5 mg/kg, PEG-400/ethanol (90/10) solution, fasted rats
Description: Rat Pharmacokinetic Studies:
For the PO pharmacokinetic studies of the compounds in rats, the compounds were each dissolved in PEG-400/ethanol (90/10) as a solution.
Rat. Male Sprague-Dawley rats (300-350 g, Hilltop Lab Animals, Inc., Scottsdale, Pa.) with cannulas implanted in the jugular vein were used. The rats were fasted overnight in the PO pharmacokinetic studies. Blood samples of 0.3 mL were collected from the jugular vein in EDTA-containing microtainer tubes (Becton Dickinson, Franklin Lakes, N.J.), and centrifuged to separate plasma.
In the PO study of the tested compounds, the rats (n=3) received an oral dose of 5 mg/kg of the indicated compound. Serial blood samples were collected before dosing and 15, 30, 45, 60, 120, 240, 360, 480, and 1440 min after dosing.
Quantitation of Compounds in Plasma. Aliquots of plasma samples from rat, studies were prepared for analysis by precipitating plasma proteins with two volumes of acetonitrile containing an internal standard of a similar compound. The resulting supernates were separated from the precipitated proteins by centrifugation for 10 minutes and transferred to autosampler vials. Samples were either prepared manually, or with the use of the Tomtec automated liquid handler. An aliquot of 5 μL was injected for analysis.
The HPLC system consisted of two Shimadzu LC10AD pumps (Columbia, Md.), a Shimadzu SIL-HTC autosampler (Columbia, Md.), and a Hewlett Packard Series 1100 column compartment (Palo Alto, Calif.). The column was a YMC Pro C18 (2.0×50 mm, 3 μm particles, Waters Co., Milford, Mass.), maintained at 60° C. and a flow rate of 0.3 ml/min. The mobile phase consisted of 10 mM ammonium formate and 0.1% formic acid in water (A) and 100% 10 mM ammonium formate and 0.1% formic acid in methanol (B). The initial mobile phase composition was 95% A. After sample injection, the mobile phase was changed to 15% A/85% B over 2 minutes and held at that composition for an additional 1 minute. The mobile phase was then returned to initial conditions and the column re-equilibrated for 1 minute. Total analysis time was 4 minutes.
The HPLC was interfaced to a Micromass Quattro LC. Ultra high purity nitrogen was used as the nebulizing and desolvation gas at flow rates of 100 L/hr for nebulization and 1100 L/hr for desolvation. The desolvation temperature was 300° C. and the source temperature was 150° C. Data acquisition utilized selected reaction monitoring (SRM). Ions representing the (M+H)^+ species for the compound and the internal standard were selected in MS1 and collisionally dissociated with argon at a pressure of 2×10^−3 torr to form specific product ions which were subsequently monitored by MS2.

[2] = system: HIV-1 92UG029 (clade A virus); assay: HIV cell culture assay, 92UG029 Gag/Pr recombinant virus in MT-2 cells; format: cell-based
Description: MT-2 cells and 293T cells were obtained from the NIH AIDS Research and Reference Reagent Program. MT-2 cells were propagated in RPMI 1640 media supplemented with 10% heat-inactivated fetal bovine serum, […]. The 293T cells were propagated in DMEM media supplemented with 10% heat-inactivated fetal bovine serum (FBS), 100 units/mL penicillin G and 100 μg/mL streptomycin. The proviral DNA clone of NL4-3 was obtained from the NIH AIDS Research and Reference Reagent Program. A recombinant NL4-3 virus, in which a section of the nef gene from NL4-3 was replaced with the Renilla luciferase gene, was used as a reference virus. In addition, residue Gag P373 was converted to P373S. Briefly, the recombinant virus was prepared by transfection of the altered proviral clone of NL4-3. Transfections were performed in 293T cells using LipofectAMINE PLUS from Invitrogen (Carlsbad, Calif.), according to manufacturer's instruction. The virus was titered in MT-2 cells using luciferase enzyme activity as a marker. Luciferase was quantitated using the Dual Luciferase kit from Promega (Madison, Wis.), with modifications to the manufacturer's protocol. The diluted Passive Lysis solution was pre-mixed with the re-suspended Luciferase Assay Reagent and the re-suspended Stop & Glo Substrate (2:1:1 ratio). Fifty (50) μL of the mixture was added to each aspirated well on assay plates and luciferase activity was measured immediately on a Wallac TriLux (Perkin-Elmer). Antiviral activities of inhibitors toward the recombinant virus were quantified by measuring luciferase activity in cells infected for 4-5 days with NLRluc recombinants in the presence serial dilutions of the inhibitor.
Determination of EC50 for WT, EC50 for A364V, and EC50 for 92UG029 viruses:
HIV-1 92UG029 was obtained from the NIH (Catalog Number: 1650). This is a subtype A Gag and subtype A Env, X4 (SI) virus from Uganda. Reference: WHO Network for HIV Isolation and Characterization. AIDS Res Hum Retroviruses 10:1359, 1994. The Gag/Pr region from 92UG029 was used to replace that in an HIV-1 NL4-3 virus expressing Renilla luciferase gene.
Both recombinant viruses were used as described above in the HIV cell culture assay for the NL4-3 virus.

[3] = system: HIV-1 NL4-3 gag A364V virus; assay: microbe, parasite or virus in culture; format: cell-based
In short: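 Recombinant NL4-3 reporter virus with Renilla luciferase replacing part of nef, made by transfection of 293T cells. MT-2 cells infected for 4-5 days with serial inhibitor dilutions; antiviral activity quantified by luciferase activity.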

[4] = system: WT (wild-type HIV virus; recombinant NL4-3 virus); assay: microbe, parasite or virus in culture; format: cell-based, HIV-1
In short: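 MT-2 cells infected 4-5 days with NL4-3 carrying Renilla luciferase in place of part of nef (Gag P373S), virus made by 293T transfection, with serial inhibitor dilutions. Antiviral activity read as luciferase activity by a modified dual-luciferase read-out.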

[5] = Human immunodeficiency virus 1, MT2, read-out: 92UG029A Clade T332S/V362I/V370A (EC50, uM)
[6] = Human immunodeficiency virus 1, MT2, read-out: EC50 92UG029 (μM)
[7] = Human immunodeficiency virus 1, NL43, MT2, read-out: A364V (EC50, uM), Table 1 regular screen, MT-2 cells, luciferase readout
[8] = Human immunodeficiency virus 1, NL43, MT2, read-out: EC50 A364V (μM), Table 2, 3× higher viral input
[9] = Human immunodeficiency virus 1, NL43, MT2, read-out: EC50 WT (μM), Table 2, 3× higher viral input
[10] = Human immunodeficiency virus 1, NL43, MT2, read-out: WT (EC50, uM), Table 1 regular screen, MT-2 cells, luciferase readout

Structure (SMILES) | AUC [1] [µM·h] | EC50 [2, 5] [µM] | EC50 [2, 6] [µM] | EC50 [3, 7] [µM] | EC50 [3, 8] [µM] | EC50 [4, 9] [µM] | EC50 [4, 10] [µM] | fold less potent than Compound 2 vs 92UG029 ([2]; relative to Compound 2) [fold] | fold less potent than Compound 2 vs A364V ([3]; relative to Compound 2) [fold] | potency vs. WT (in words) ([4]; comparative data)
C=C(C)[C@@H]1CC[C@]2(NCCN3CCS(=O)(=O)CC3)CC[C@]3(C)[C@H](CC[C@@H]4[C@@]5(C)CC=C(C6=CCC(CF)(C(=O)O)CC6)C(C)(C)[C@@H]5CC[C@]43C)[C@@H]12 (mixture of isomers) [Example 2, 4-((1R,3aS,5aR,5bR,7aR,11aS,11bR,13aR,13bR)-3a-((2-(1,1-dioxidothiomorpholino)ethyl)amino)-5a,5b,8,8,11a-pentamethyl-1-(prop-1-en-2-yl)-2,3,3a,4,5,5a,5b,6,7,7a,8,11,11a,11b,12,13,13a,13b-octadecahydro-1H-cyclopenta[a]chrysen-9-yl)-1-(fluoromethyl)cyclohex-3-enecarboxylic acid] | 7.93 | 0.00461 | 0.005 | 0.0847 | 0.21 | 0.002 | 0.00129 | – | – | –
C=C(C)[C@@H]1CC[C@]2(NCCN3CCS(=O)(=O)CC3)CC[C@]3(C)[C@H](CC[C@@H]4[C@@]5(C)CC=C(C6=CCC(C)(C(=O)O)CC6)C(C)(C)[C@@H]5CC[C@]43C)[C@@H]12 (stereo partly shown) [Compound B, reference compound] | 6.46 | – | 0.03 | – | 1.3 | 0.002 | – | 6 | 6 | comparable potency
C=C(C)[C@@H]1CC[C@]2(NCCN3CCS(=O)(=O)CC3)CC[C@]3(C)[C@H](CC[C@@H]4[C@@]5(C)CC=C(C6=CC[C@@](CF)(C(=O)O)CC6)C(C)(C)[C@@H]5CC[C@]43C)[C@@H]12 [Example 2b, (R)-4-((1R,3aS,5aR,5bR,7aR,11aS,11bR,13aR,13bR)-3a-((2-(1,1-dioxidothiomorpholino)ethyl)amino)-5a,5b,8,8,11a-pentamethyl-1-(prop-1-en-2-yl)-2,3,3a,4,5,5a,5b,6,7,7a,8,11,11a,11b,12,13,13a,13b-octadecahydro-1H-cyclopenta[a]chrysen-9-yl)-1-(fluoromethyl)cyclohex-3-enecarboxylic acid] | 7.39 | 0.00618 | 0.001 | 0.201 | 0.17 | 0.003 | 0.00148 | – | – | –
C=C(C)[C@@H]1CC[C@]2(NCCN3CCS(=O)(=O)CC3)CC[C@]3(C)[C@H](CC[C@@H]4[C@@]5(C)CC=C(C6=CC[C@](CF)(C(=O)O)CC6)C(C)(C)[C@@H]5CC[C@]43C)[C@@H]12 [Example 2a, (S)-4-((1R,3aS,5aR,5bR,7aR,11aS,11bR,13aR,13bR)-3a-((2-(1,1-dioxidothiomorpholino)ethyl)amino)-5a,5b, 8,8,11a-pentamethyl-1-(prop-1-en-2-yl)-2,3,3a,4,5,5a,5b,6,7,7a,8,11,11a,11b,12,13,13a,13b-octadecahydro-1H-cyclopenta[a]chrysen-9-yl)-1-(fluoromethyl)cyclohex-3-enecarboxylic acid] | 7.03 | 0.00706 | 0.02 | 0.16 | 0.78 | 0.002 | 0.00198 | – | – | –
